Earlier results in patent US20070149443A1, “Methods of treating obesity using enterostatin” (priority 2005, published 2007).

Conditions: administered orally to humans; literature report

enterostatin
did not affect: body weight | energy expenditure | food intake
